Measured values taken from PubChem BioAssay AID2060886 (Molecular Pharmacology Branch, DTP, NCI, 2025).

Tested on: 653999-131-R-J2-PDC complex spheroids, growth inhibition
Test: Anticancer human tumor 653999-131-R-J2-PDC patient-derived lung adenocarcinoma cell line growth inhibition [RAS]
Details: for IC50: curve of first compound; for viability, T/C: stronger effect = lower value; active means viability on the fitted dose curve at most 10% of control; inactive means the rest
Source text: RAS pathway inhibitors in Combinations in Complex Spheroids
A high-throughput screen of multi-cell type tumor spheroids was designed to identify active combinations of RAS pathway inhibitors and targeted small molecules. Complex spheroids include a stromal component modeled by human endothelial cells (HUVEC) and fibroblasts modeled by human mesenchymal stem cells (MSCs). The concentration ranges selected for each drug and investigational agent were based upon clinically achievable concentrations if the clinical Cmax of the agent was known.
Compounds. The drugs and investigational agents: abemaciclib (NSC768073), cobimetinib (NSC768068), divarasib (GDC6063, NSC841802), docetaxel (NSC628503), GDC-1971 (RLY-1971, NSC841576), gemcitabine (NSC613327), inavolisib (NSC800729), ipatasertib (NSC767898), KB-0742 (NSC834161), MRTX-1133 (NSC836407), osimertinib (NSC779217), RMC-4630 (NSC839698), RMC-6236 (NSC851965), RMC-6291 (NSC852671), Ro-3306 (NSC812927), sapanisertib (NSC764658), SN-38 (NSC673596), staurosporine (NSC755774), SY5609 (NSC837396), and tovorafenib (DAY101, NSC766906), were obtained from the National Cancer Institute (NCI) Developmental Therapeutics Program Chemical Repository. The FDA-approved anticancer drug set is available from the NCI Developmental Therapeutics Program. […] The stock solutions were prepared in dimethyl sulfoxide (DMSO, Sigma-Aldrich, St. Louis, MO, cat. D2650) at 800-fold the tested concentration and stored at -70 degrees C prior to their use. All drugs and investigational agents were tested over a range starting from a high concentration at or near the clinical Cmax and decreasing in half-log increments. If the clinical Cmax for an agent had not been determined, the highest concentration tested was 10 microM.
Cell Culture. All cells were maintained in an incubator at 37 degrees C and 5% CO2 with 95% humidity. The PDC lines were cultured according to standard operating procedures established by the NCI PDMR. All PDCs were thawed and cultured in Matrigel-coated flasks prepared with a working solution of 1X Ham's F-12 nutrient mix, without supplementation (Invitrogen, Waltham, MA, cat. 11765054), 100 U/mL penicillin-streptomycin (Invitrogen, cat. 15140122), and 2.5% Matrigel (Corning Inc., Corning, NY, cat. 354248) for the first three passages. The 362531-283-R-J2-PDC and 782815-120-R-J1-PDC lines were cultured in 6C/Colon 1B media, which includes advanced DMEM/F-12 (Thermo Fisher Scientific, cat. 12634028), 10 mM HEPES (Thermo Fisher Scientific, cat. 15630080), 1X GlutaMAX supplement (Thermo Fisher Scientific, cat. 35050061), 0.1 mg/mL primocin (InvivoGen, San Diego, CA, cat. ant-pm-2), 10% defined fetal bovine serum, heat inactivated (HyClone Laboratories Inc., Logan, UT, cat. SH30070.03HI), 50% L-WRN conditioned media (ATCC, cat. CRL-3276), 1.25 mM N-Acetyl-L-cysteine (Sigma-Aldrich, cat. A9165), 10 mM nicotinamide (Sigma-Aldrich, cat. N0636), 1X B-27 supplement (Thermo Fisher Scientific, cat. 17504044), 1X N-2 supplement (Thermo Fisher Scientific, cat. 17502048), 50 ng/mL human EGF (Thermo Fisher Scientific, cat. PHG0311), and 10 microM Y-27632 dihydrochloride (Tocris Bioscience, cat. 1254). The K12877-001-R-J1-PDC line was cultured in 6I media, which includes all 6C/Colon 1B media plus 10 ng/mL human FGF-10 (PeproTech, cat. 100-26), 1 ng/mL human FGF-2 (PeproTech, cat. 100-18B), 1 µM prostaglandin E2 (Tocris Bioscience, cat. 2296), […] hydrocortisone (Sigma-Aldrich, cat. H4001), and […] bovine insulin (Sigma-Aldrich, cat. I6634). The K86415-001-R-J1-PDC line was cultured in 6D media, which includes all 6C/Colon 1B media components minus the L-WRN conditioned media. The 485176-168-R4-J1-PDC was cultured in PANC media, which includes all 6C/Colon 1B media plus 100 ng/mL human FGF-10 (PeproTech, cat. 100-26), 500 nM SB-431542 (Selleckchem, cat. S1067), and 10 nM gastrin (Tocris Bioscience, cat. 3006). […]

[1] = second compound 0.0316 µM, first compound 0.0316 µM
[2] = second compound 0.0316 µM, first compound 0.1 µM
[3] = second compound 0.0316 µM, first compound 0.316 µM
[4] = second compound 0.0316 µM, first compound 1 µM
[5] = second compound 0.1 µM, first compound 0.0316 µM
[6] = second compound 0.1 µM, first compound 0.1 µM
[7] = second compound 0.1 µM, first compound 0.316 µM
[8] = second compound 0.1 µM, first compound 1 µM
[9] = second compound 0.316 µM, first compound 0.0316 µM
[10] = second compound 0.316 µM, first compound 0.1 µM
[11] = second compound 0.316 µM, first compound 0.316 µM
[12] = second compound 0.316 µM, first compound 1 µM
[13] = second compound 1 µM, first compound 0.0316 µM
[14] = second compound 1 µM, first compound 0.1 µM
[15] = second compound 1 µM, first compound 0.316 µM
[16] = second compound 1 µM, first compound 1 µM
[17] = second compound 0.0316 µM, first compound 3.16 µM
[18] = second compound 0.0316 µM, first compound 10 µM
[19] = second compound 0.1 µM, first compound 3.16 µM
[20] = second compound 0.1 µM, first compound 10 µM
[21] = second compound 0.316 µM, first compound 3.16 µM
[22] = second compound 0.316 µM, first compound 10 µM
[23] = second compound 1 µM, first compound 3.16 µM
[24] = second compound 1 µM, first compound 10 µM
[25] = second compound 3.16 µM, first compound 0.0316 µM
[26] = second compound 3.16 µM, first compound 0.1 µM
[27] = second compound 3.16 µM, first compound 0.316 µM
[28] = second compound 3.16 µM, first compound 1 µM
[29] = second compound 3.16 µM, first compound 3.16 µM
[30] = second compound 3.16 µM, first compound 10 µM
[31] = second compound 10 µM, first compound 0.0316 µM
[32] = second compound 10 µM, first compound 0.1 µM
[33] = second compound 10 µM, first compound 0.316 µM
[34] = second compound 10 µM, first compound 1 µM
[35] = second compound 10 µM, first compound 3.16 µM
[36] = second compound 10 µM, first compound 10 µM
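Further: spheroids exposed to the agents for seven days before the readout.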

O=C(c1ccc(F)c(F)c1Nc1ccc(I)cc1F)N1CC(O)([C@@H]2CCCCN2)C1 + C=CC(=O)N1CCN(c2nc(OCC3CCCN3C)nc3c(F)c(-c4nc(N)cc(C)c4C(F)(F)F)c(Cl)cc23)C(C)C1
111 nM: IC50 (second compound 0.0316 µM)
87.3 nM: IC50 (second compound 0.316 µM)
active: viability, T/C (second compound 0.00316 µM, first compound 1 µM) 10.2% | viability, T/C [4] 7.31% | viability, T/C [12] 9.08%
inactive: viability, T/C (second compound 0.00316 µM, first compound 0.00316 µM) 86.1% | viability, T/C (second compound 0.00316 µM, first compound 0.01 µM) 83.1% | viability, T/C (second compound 0.00316 µM, first compound 0.0316 µM) 63.8% | viability, T/C (second compound 0.00316 µM, first compound 0.1 µM) 53.6% | viability, T/C (second compound 0.00316 µM, first compound 0.316 µM) 25% | viability, T/C (second compound 0.01 µM, first compound 0.00316 µM) 94.1% | viability, T/C (second compound 0.01 µM, first compound 0.01 µM) 83.3% | viability, T/C (second compound 0.01 µM, first compound 0.0316 µM) 53.2% | viability, T/C (second compound 0.01 µM, first compound 0.1 µM) 37.7% | viability, T/C (second compound 0.01 µM, first compound 0.316 µM) 24.1% | viability, T/C (second compound 0.01 µM, first compound 1 µM) 8.42% | viability, T/C (second compound 0.0316 µM, first compound 0.00316 µM) 105% | viability, T/C (second compound 0.0316 µM, first compound 0.01 µM) 86.6% | viability, T/C [1] 74.8% | viability, T/C [2] 57.6% | viability, T/C [3] 22.4% | viability, T/C (second compound 0.1 µM, first compound 0.00316 µM) 96.9% | viability, T/C (second compound 0.1 µM, first compound 0.01 µM) 80.5% | viability, T/C [5] 60.6% | viability, T/C [6] 40.5% | viability, T/C [7] 29% | viability, T/C [8] 9.39% | viability, T/C (second compound 0.316 µM, first compound 0.00316 µM) 84.4% | viability, T/C (second compound 0.316 µM, first compound 0.01 µM) 69.9% | viability, T/C [9] 65.8% | viability, T/C [10] 51.2% | viability, T/C [11] 24.5% | viability, T/C (second compound 1 µM, first compound 0.00316 µM) 100% | viability, T/C (second compound 1 µM, first compound 0.01 µM) 79% | viability, T/C [13] 60.3% | viability, T/C [14] 48.8% | viability, T/C [15] 25.8% | viability, T/C [16] 11%
63.8 nM: IC50 (second compound 0.1 µM)
49.2 nM: IC50 (second compound 0.01 µM)
96.1 nM: IC50 (second compound 0.00316 µM)
70.3 nM: IC50 (second compound 1 µM)

CC(Nc1ccc2c(c1)OCCn1cc(N3C(=O)OCC3C(F)F)nc1-2)C(N)=O (stereo unspecified) + C#Cc1c(F)ccc2cc(O)cc(-c3ncc4c(N5CC6CCC(C5)N6)nc(OCC56CCCN5CC(F)C6)nc4c3F)c12
inactive: viability, T/C [1] 86.3% | viability, T/C [2] 70.3% | viability, T/C [3] 53.8% | viability, T/C [4] 44.4% | viability, T/C [17] 35.1% | viability, T/C [18] 22.3% | viability, T/C [5] 77.2% | viability, T/C [6] 66.9% | viability, T/C [7] 47% | viability, T/C [8] 32.3% | viability, T/C [19] 26.1% | viability, T/C [20] 22.6% | viability, T/C [9] 63.6% | viability, T/C [10] 51.2% | viability, T/C [11] 39.5% | viability, T/C [12] 25.5% | viability, T/C [21] 18.9% | viability, T/C [22] 13.5% | viability, T/C [13] 39.9% | viability, T/C [14] 35.1% | viability, T/C [15] 28.1% | viability, T/C [16] 23% | viability, T/C [23] 19% | viability, T/C [24] 11% | viability, T/C [25] 30.1% | viability, T/C [26] 28.4% | viability, T/C [27] 22.9% | viability, T/C [28] 11.8% | viability, T/C [29] 13.9% | viability, T/C [31] 17.1% | viability, T/C [32] 14.3% | viability, T/C [33] 10.6%
active: viability, T/C [30] 7.23% | viability, T/C [34] 8.07% | viability, T/C [35] 5.81% | viability, T/C [36] 4.16%
< 31.6 nM: IC50 (second compound 1 µM) | IC50 (second compound 3.16 µM) | IC50 (second compound 10 µM)
273 nM: IC50 (second compound 0.1 µM)
558 nM: IC50 (second compound 0.0316 µM)
117 nM: IC50 (second compound 0.316 µM)

CCC(CC)c1cc(NC2CCC(N)C2)n2nccc2n1 (stereo unspecified) + C#Cc1c(F)ccc2cc(O)cc(-c3ncc4c(N5CC6CCC(C5)N6)nc(OCC56CCCN5CC(F)C6)nc4c3F)c12
1580 nM: IC50 (second compound 0.316 µM)
inactive: viability, T/C [1] 91.1% | viability, T/C [2] 110% | viability, T/C [3] 84.8% | viability, T/C [4] 105% | viability, T/C [17] 15.3% | viability, T/C [18] 28.7% | viability, T/C [5] 85.2% | viability, T/C [6] 101% | viability, T/C [7] 93.1% | viability, T/C [8] 80.6% | viability, T/C [19] 14.2% | viability, T/C [20] 28.3% | viability, T/C [9] 71.7% | viability, T/C [10] 75.5% | viability, T/C [11] 75.4% | viability, T/C [12] 72.3% | viability, T/C [21] 14.8% | viability, T/C [22] 17.3% | viability, T/C [13] 56.2% | viability, T/C [14] 57% | viability, T/C [15] 68.7% | viability, T/C [16] 59.2% | viability, T/C [23] 10.7% | viability, T/C [24] 25.3% | viability, T/C [25] 47.2% | viability, T/C [26] 45% | viability, T/C [27] 49.3% | viability, T/C [28] 39.4% | viability, T/C [29] 16% | viability, T/C [30] 27.7% | viability, T/C [31] 36.2% | viability, T/C [32] 33.5% | viability, T/C [33] 20.9% | viability, T/C [34] 31.6% | viability, T/C [35] 9.65% | viability, T/C [36] 13.1%
2070 nM: IC50 (second compound 0.0316 µM)
< 31.6 nM: IC50 (second compound 10 µM)
31.6 nM: IC50 (second compound 3.16 µM)
1810 nM: IC50 (second compound 0.1 µM)
1290 nM: IC50 (second compound 1 µM)
